Assay results: patent US20110076293A1, “TRIPTOLIDE DERIVATIVES FOR MODULATION OF APOPTOSIS AND IMMUNOSUPPRESSION” (priority 2002, published 2011)
Structures can show the parent of a compound that is named as a salt. Where two headings read alike, the source gives them in different places.

Legend:
[1] = test system: Jurkat human T lymphocyte cell line; assay: Apoptosis assay (Annexin V) of compounds incubated with human serum; conditions: for % apoptotic cells at given concentration (nM): Table 5
Description: (§1) Compounds of formula I, as shown in Table 1 above and in the Examples, were assayed for their capacity to induce apoptosis in cells from the Jurkat human T lymphocyte cell line, after incubation with pooled human serum for varying periods of time at 37° C. (see Example 19). An ester prodrug, triptolide-14-succinate, designated PG490-88, was included for comparison. The extent of conversion to triptolide after such incubation was also independently determined by HPLC analysis.
The ED50 values (column 3) are calculated directly from the data in each experiment, and the % conversion values (column 4) are calculated as percent of the ED50 value produced by triptolide, designated PG490, incubated in the same plasma (i.e. in the same experiment).
A. Incubation of compounds with human serum. Pooled human serum was stored in aliquots at −80° C. Test compounds were added at 20 mM to thawed human serum in 1.5 ml microfuge tubes and incubated at 37° C. in a water bath for varying periods of time. The test samples were placed on ice until dilution for the bioassay. Controls consisted of the compounds incubated in complete tissue culture medium (RPMI 1640 medium plus 5% heat-inactivated fetal calf serum, 1% HEPES, 1% pen/strep, 1% glutamine) rather than human serum.
B. Apoptosis assay of compounds incubated with human serum. Test samples were diluted to 1 mM in complete tissue culture medium. Aliquots were placed in microculture plates and serial dilutions were prepared so that the final concentration would encompass the range of 1 to 10,000 nM with half-log increments. Cells from an exponentially expanding culture of the Jurkat human T lymphocyte cell line (#TIB-152 obtained from American Type Culture Collection, Manassas, Va.) were harvested, washed once by centrifugation and dilution in complete tissue culture medium, and diluted to a concentration of 1×10^6 cells/ml. A volume of 100 μl of Jurkat cells (1×10^5 cells) was added to wells containing 100 μl of the diluted compounds, and the plates were incubated at 37° C. in a 5% CO2 incubator. After 24 hours, the plates were centrifuged to pellet the cells, and the cells were washed twice with 2% heat-inactivated fetal calf serum in PBS. To each well, 500 ul of binding buffer was added according to the Annexin V assay procedure (BioVision, Inc., Mountain View, Calif.). Next, 5 μl of the fluorescein isothiocyanate (FITC) conjugate of Annexin V (BioVision, Inc.) was added to each well, followed by 5 minutes of incubation in the dark. In some assays, propidium iodide (BioVision, Inc.) was added at this stage to check for necrotic cells. The contents of the wells were individually transferred into test tubes, and apoptosis was analyzed using a FACSCalibur flow cytometer (BD Immunocytometry Systems, San Jose, Calif.). Cells positive for Annexin V binding were considered to be apoptotic, and the data were calculated as percent apoptotic cells.
(§2) C. Comparison of bioactivities after incubation of compounds in human serum. The data were plotted as the concentration of compound incubated in serum versus percent apoptotic cells. The concentration of compound inducing 50% apoptosis (ED50) was calculated from these dose response curves. […] This percentage conversion was used to compare the bioactivity of various compounds after incubation in human serum.

in vitro = conditions: for half-life: human, plasma; for max. conversion at 48 hr in human plasma by HPLC: incomplete conversion to triptolide, 48 hr incubation
Description: as §1
Prodrug conversions to triptolide as determined independently by HPLC are given in […].

[2] = test system: IL-2 production in Jurkat human T lymphocyte cells; assay: IL-2 production assay for activity of compounds incubated with human serum; conditions: for IC50: IL-2 production in Jurkat cells after incubation with pooled human serum for 48 hours at 37° C.; for Conversion (%): percent of the IC50 value produced by triptolide (PG490) in the same experiment, human serum 48 hours; for IL-2 pg/mL at given concentration (nM): Table 7, Jurkat cells (48 hrs)
Description: Several compounds of formula I were analyzed for their capacity to inhibit IL-2 production in Jurkat human T lymphocyte cells, after incubation with pooled human serum for 48 hours at 37° C. (see Example 20). An ester prodrug, triptolide-14-succinate, designated PG490-88, was included for comparison.
The IC50 values (column 1) are calculated directly from the data in each experiment. The % conversion values (column 2) are calculated as the percent of the IC50 value produced by triptolide, designated PG490, incubated in the same plasma (i.e. in the same experiment).
A. IL-2 production assay for activity of compounds incubated with human serum. Test samples were diluted to 1 mM in complete tissue culture medium. […] Cells from an exponentially expanding culture of the Jurkat human T lymphocyte cell line (#TIB-152 obtained from American Type Culture Collection, Manassas, Va.) were harvested, washed once by centrifugation and dilution in complete tissue culture medium, and diluted to a concentration of 2×10^6 cells/ml. A volume of 50 μl of Jurkat cells (1×10^5 cells) was added to wells containing 100 μl of the diluted compounds, 50 μl of PMA (10 ng/ml) was added to each well, and the plates were incubated at 37° C. in a 5% CO2 incubator. After 24 hours, the plates were centrifuged to pellet the cells, 150 μl of supernatant was removed from each well, and the samples were stored at −20° C. The stored supernatants were analyzed for human IL-2 concentration using the Luminex 100 (Luminex Corporation, Austin, Tex.), Luminex microspheres coupled with anti-IL-2 capture antibody, and fluorochrome-coupled anti-IL-2 detection antibody. The data were expressed as ng/ml of IL-2.
as §2, with “B.” for “C.”, “IL-2 concentration.” for “percent apoptotic cells.”, “inducing a” for “inducing”, “decrease in the IL-2 concentration (IC50)” for “apoptosis (ED50)”

[3] = Homo sapiens, Jurkat, 0.5 h, read-out: ED50 (nM) in apoptosis assay after incubation with serum, incubation time in human serum 0.5 hours, 37° C.
[4] = Homo sapiens, Jurkat, 1 h, read-out: ED50 (nM) in apoptosis assay after incubation with serum, incubation time in human serum 1 hour, 37° C.
[5] = Homo sapiens, Jurkat, 48 h, read-out: ED50 (nM) in apoptosis assay after incubation with serum, incubation time in human serum 48 hours, 37° C.
[6] = incubation time in human serum 0.5 hours
[7] = incubation time in human serum 1 hour
[8] = incubation time in human serum 48 hours

SMILES: CCOC(=O)O[C@@H]1[C@@]2(C(C)C)O[C@H]2[C@@H]2O[C@]23[C@]12O[C@H]2C[C@H]1C2=C(CC[C@@]13C)C(=O)OC2 [PG674, Triptolide 14-Ethyl Carbonate]
- EC50 [1, 3]: 27 nM
- EC50 [1, 4]: 55 nM
- EC50 ([1]; Homo sapiens, Jurkat, 24 h, read-out: ED50 (nM) in apoptosis assay after incubation with serum, incubation time in human serum 24 hours, 37° C.): 60 nM
- EC50 [1, 5]: 65 nM
- Conversion, as relative ED50 compared to triptolide (%) [1, 6]: 188%
- Conversion, as relative ED50 compared to triptolide (%) [1, 7]: 98%
- Conversion, as relative ED50 compared to triptolide (%) ([1]; incubation time in human serum 24 hours): 97%
- Conversion, as relative ED50 compared to triptolide (%) [1, 8]: 100%
- half-life (in vitro): 12 min

SMILES: CC(C)[C@]12O[C@H]1[C@@H]1O[C@]13[C@]1(O[C@H]1C[C@H]1C4=C(CC[C@@]13C)C(=O)OC4)[C@@H]2OC(=O)OCCN(C)C [PG682, Triptolide 14-Dimethylaminoethyl Carbonate]
- EC50 [1, 4]: 66 nM
- EC50 [1, 5]: 32 nM
- Conversion, as relative ED50 compared to triptolide (%) [1, 7]: 76%
- Conversion, as relative ED50 compared to triptolide (%) [1, 8]: 146%
- half-life (in vitro): 17 min
- IC50 [2]: 23 nM
- Conversion (%) [2]: 78%

SMILES: CC(C)[C@]12O[C@H]1[C@@H]1O[C@]13[C@]1(O[C@H]1C[C@H]1C4=C(CC[C@@]13C)C(=O)OC4)[C@@H]2OC(=O)OCC(=O)[O-].[Na+] [PG687Na, Sodium Salt of Triptolide 14-Hydroxycarbonylmethyl Carbonate]
- max. conversion at 48 hr in human plasma by HPLC (in vitro): 10%
- IC50 [2]: 92 nM
- Conversion (%) [2]: 1%

SMILES: COC(=O)COC(=O)O[C@@H]1[C@@]2(C(C)C)O[C@H]2[C@@H]2O[C@]23[C@]12O[C@H]2C[C@H]1C2=C(CC[C@@]13C)C(=O)OC2 [PG680, Triptolide 14-Methoxycarbonylmethyl Carbonate]
- EC50 [1, 5]: 58 nM
- Conversion, as relative ED50 compared to triptolide (%) [1, 8]: 85%
- half-life (in vitro): 9 min
- IC50 ([2]; Homo sapiens, Jurkat, 48 h): 3 nM
- Conversion (%) [2]: 44%

SMILES: CC(C)[C@]12O[C@H]1[C@@H]1O[C@]13[C@]1(O[C@H]1C[C@H]1C4=C(CC[C@@]13C)C(=O)OC4)[C@@H]2OC(=O)OCC(=O)O [PG687tris, Tris(hydroxymethyl)aminomethane Salt of Triptolide 14-Hydroxycarbonyl-methyl Carbonate]
- EC50 [1, 5]: 960 nM
- Conversion, as relative ED50 compared to triptolide (%) [1, 8]: 6%
- max. conversion at 48 hr in human plasma by HPLC (in vitro): max. 10% at
- IC50 ([2]; Homo sapiens, Jurkat, 48 h): 29 nM
- Conversion (%) [2]: 6%

SMILES: CCOCCOC(=O)O[C@@H]1[C@@]2(C(C)C)O[C@H]2[C@@H]2O[C@]23[C@]12O[C@H]2C[C@H]1C2=C(CC[C@@]13C)C(=O)OC2 [PG679, Triptolide 14-Ethoxyethyl Carbonate]
- EC50 [1, 3]: 39 nM
- Conversion, as relative ED50 compared to triptolide (%) [1, 6]: 128%
- half-life (in vitro): 11 min
- IC50 ([2]; Homo sapiens, Jurkat, 48 h): 12 nM
- Conversion (%) [2]: 11%

SMILES: CC(C)[C@]12O[C@H]1[C@@H]1O[C@]13[C@]1(O[C@H]1C[C@H]1C4=C(CC[C@@]13C)C(=O)OC4)[C@@H]2OC(=O)OCCN(C)C.Cc1ccc(S(=O)(=O)O)cc1 [PG682PTSA, p-Toluenesulfonate Salt of Triptolide 14-Dimethylaminoethyl Carbonate]
- Conversion, as relative ED50 compared to triptolide (%) [1, 7]: 89%
- EC50 ([1]; read-out: ED50 (nM) in apoptosis assay after incubation with serum, incubation time in human serum 1 hour, 37° C.): 57 nM
- half-life (in vitro): 17 min
- IC50 [2]: 2 nM
- Conversion (%) [2]: 97%

SMILES: CC(C)[C@]12O[C@H]1[C@@H]1O[C@]13[C@]1(O[C@H]1C[C@H]1C4=C(CC[C@@]13C)C(=O)OC4)[C@@H]2OC(=O)NCCN(C)C [PG688, Triptolide 14-Dimethylaminoethyl Carbamate]
- conversion in human serum (in words) [1]: less readily converted
- % apoptotic cells at given concentration (nM) ([1]; human serum (48 hrs), 1 nM): 9.2%
- % apoptotic cells at given concentration (nM) ([1]; human serum (48 hrs), 3 nM): 9.8%
- % apoptotic cells at given concentration (nM) ([1]; human serum (48 hrs), 10 nM): 9.4%
- % apoptotic cells at given concentration (nM) ([1]; human serum (48 hrs), 30 nM): 9.5%
- % apoptotic cells at given concentration (nM) ([1]; human serum (48 hrs), 100 nM): 9.4%
- % apoptotic cells at given concentration (nM) ([1]; human serum (48 hrs), 300 nM): 8.7%
- % apoptotic cells at given concentration (nM) ([1]; human serum (48 hrs), 1000 nM): 8.6%
- % apoptotic cells at given concentration (nM) ([1]; human serum (48 hrs), 3000 nM): 8.2%
- % apoptotic cells at given concentration (nM) ([1]; medium, 1 nM): 13.0%
- % apoptotic cells at given concentration (nM) ([1]; medium, 3 nM): 14.0%
- % apoptotic cells at given concentration (nM) ([1]; medium, 10 nM): 12.1%
- % apoptotic cells at given concentration (nM) ([1]; medium, 30 nM): 10.9%
- % apoptotic cells at given concentration (nM) ([1]; medium, 100 nM): 11.2%
- % apoptotic cells at given concentration (nM) ([1]; medium, 300 nM): 11.3%
- % apoptotic cells at given concentration (nM) ([1]; medium, 1000 nM): 12.1%
- % apoptotic cells at given concentration (nM) ([1]; medium, 3000 nM): 10.9%
- bioactivity in IL-2 inhibition assays (in words) ([2]; FIGS. 4-5): some level of bioactivity
- IL-2 pg/mL at given concentration (nM) ([2]; 0.001 nM): 883.9 pg/mL
- IL-2 pg/mL at given concentration (nM) ([2]; 0.01 nM): 754.1 pg/mL
- IL-2 pg/mL at given concentration (nM) ([2]; 0.1 nM): 810.4 pg/mL
- IL-2 pg/mL at given concentration (nM) ([2]; 1 nM): 900.4 pg/mL
- IL-2 pg/mL at given concentration (nM) ([2]; 10 nM): 796.3 pg/mL
- IL-2 pg/mL at given concentration (nM) ([2]; 100 nM): 873.3 pg/mL
- IL-2 pg/mL at given concentration (nM) ([2]; 1000 nM): 759.9 pg/mL
- IL-2 pg/mL at given concentration (nM) ([2]; 10000 nM): 459.8 pg/mL

SMILES: CC(C)[C@]12O[C@H]1[C@@H]1O[C@]13[C@]1(O[C@H]1C[C@H]1C4=C(CC[C@@]13C)C(=O)OC4)[C@@H]2OC(=O)O[C@H](C)C(=O)OC(C)(C)C [PG681, Triptolide 14-(R)-α-Methyl-tert-butoxycarbonylmethyl Carbonate]
- EC50 [1, 4]: 684 nM
- EC50 [1, 5]: 139 nM
- Conversion, as relative ED50 compared to triptolide (%) [1, 7]: 7%
- Conversion, as relative ED50 compared to triptolide (%) [1, 8]: 40%
- IC50 ([2]; Homo sapiens, Jurkat, 48 h): 3 nM
- Conversion (%) [2]: 55%
